Experimental data taken from patent publication US20230024302A1, “2,3,5-TRISUBSTITUTED PYRAZOLO[1,5-A]PYRIMIDINE COMPOUNDS” (Arcus Biosciences, Inc., priority 2019, published 2023).
pIC50: −log10 of the molar value.

Legend:
PI3Kγ (p120γ) = target: T1, PI3Kγ (p120γ) (Homo sapiens, UniProt P48736); experiment: Inhibition of PI3K kinase activity (ADP Glo), PI3Kγ; conditions: Table 1, p120γ, read-out: biochemical potency (PI3Kγ IC50)
T1 construct: purchased Promega V1761
How it was run: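 Recombinant p120γ (8 nM, 2× stock) was preincubated with compound for 1 h at rt in HEPES pH 7.4, NaCl, MgCl2 and 0.05% BSA. Reaction was started with PIP2 (0.1 mg/ml, 2×) and ATP (50 μM, 2×) and ran 60 min at rt. ADP formed was read by ADP-Glo luminescence, and IC50 came from a 4-parameter fit.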

PI3Kγ = target: T2, PI3Kγ (Homo sapiens, UniProt P48736); experiment: PI3Kγ cellular assay in THP-1 cells (AKT pS473 AlphaLISA); assay type: cell-based; conditions: Table 1, rhMCP-1 stimulated AKT pS473, read-out: cellular potency (PI3Kγ IC50)
T2 construct: host or cells: THP-1
How it was run: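 Serum-starved THP-1 cells (1.8×10^5/well, serum-free DMEM) treated with compounds from 4 nM to 30 μM in 2% DMSO, then stimulated and lysed.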

T2 sequence (P48736 whole entry): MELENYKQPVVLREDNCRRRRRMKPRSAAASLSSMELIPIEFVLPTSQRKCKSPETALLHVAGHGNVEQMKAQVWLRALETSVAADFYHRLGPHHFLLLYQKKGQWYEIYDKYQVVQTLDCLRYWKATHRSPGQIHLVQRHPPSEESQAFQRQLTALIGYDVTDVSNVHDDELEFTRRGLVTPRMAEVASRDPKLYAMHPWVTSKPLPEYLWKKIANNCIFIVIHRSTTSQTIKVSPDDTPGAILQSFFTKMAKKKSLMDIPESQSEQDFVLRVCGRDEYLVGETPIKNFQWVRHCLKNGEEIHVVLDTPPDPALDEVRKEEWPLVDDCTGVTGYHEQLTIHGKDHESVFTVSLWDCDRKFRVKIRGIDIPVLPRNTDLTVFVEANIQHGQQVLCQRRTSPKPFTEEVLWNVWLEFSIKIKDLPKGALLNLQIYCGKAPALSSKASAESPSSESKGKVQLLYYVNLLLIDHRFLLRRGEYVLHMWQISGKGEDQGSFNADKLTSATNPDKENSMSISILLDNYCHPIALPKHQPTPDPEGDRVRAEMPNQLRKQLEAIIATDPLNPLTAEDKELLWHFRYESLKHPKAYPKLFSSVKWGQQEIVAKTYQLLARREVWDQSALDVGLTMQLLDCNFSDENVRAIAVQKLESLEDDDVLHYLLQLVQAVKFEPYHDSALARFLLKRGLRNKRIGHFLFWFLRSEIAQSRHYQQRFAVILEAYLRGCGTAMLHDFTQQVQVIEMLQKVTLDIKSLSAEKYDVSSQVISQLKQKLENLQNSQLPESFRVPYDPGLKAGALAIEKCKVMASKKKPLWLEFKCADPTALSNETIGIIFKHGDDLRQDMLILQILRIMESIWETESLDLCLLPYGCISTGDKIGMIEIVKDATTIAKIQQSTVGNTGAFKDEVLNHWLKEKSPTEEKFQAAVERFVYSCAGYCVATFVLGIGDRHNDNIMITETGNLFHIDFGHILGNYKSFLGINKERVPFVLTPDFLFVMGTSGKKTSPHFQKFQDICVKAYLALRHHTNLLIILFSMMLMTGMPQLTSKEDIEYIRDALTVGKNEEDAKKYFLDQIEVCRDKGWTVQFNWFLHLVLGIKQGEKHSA
T1 sequence (P48736 whole entry): as above

| SMILES | pIC50 (PI3Kγ (p120γ)) | pIC50 (PI3Kγ) |
| --- | --- | --- |
| C[C@H](CO)NC(=O)c1c(N)nn2ccc(-c3cc4c(c(OCC(F)(F)F)c3)C(=O)N([C@@H](C)C3CC3)C4)nc12 [Example 156, 2-Amino-5-{2-[(1S)-1-cyclopropylethyl]-1-oxo-7-(2,2,2-trifluoroethoxy)-2,3-dihydro-1H-isoindol-5-yl}-N-[(2R)-1-hydroxypropan-2-yl]pyrazolo[1,5-a]pyrimidine-3-carboxamide] | > 7.00 | > 7.00 |
| C[C@@H](C1CC1)N1Cc2cc(-c3ccn4nc(N)c(C(=O)NC5CC5)c4n3)cc(OC3CC(F)(F)C3)c2C1=O [Example 157, 2-Amino-N-cyclopropyl-5-{2-[(1S)-1-cyclopropylethyl]-7-(3,3-difluorocyclobutoxy)-1-oxo-2,3-dihydro-1H-isoindol-5-yl}pyrazolo[1,5-a]pyrimidine-3-carboxamide] | > 7.00 | > 7.00 |
| C[C@@H](C1CC1)N1Cc2cc(-c3ccn4nc(N)c(C(=O)NC5CC5)c4n3)cc(OC(F)F)c2C1=O [Example 158, 2-Amino-N-cyclopropyl-5-{2-[(1S)-1-cyclopropylethyl]-7-(difluoromethoxy)-1-oxo-2,3-dihydro-1H-isoindol-5-yl}pyrazolo[1,5-a]pyrimidine-3-carboxamide] | > 7.00 | > 7.00 |
| C[C@@H](C1CC1)N1Cc2cc(-c3ccn4nc(N)c(C(=O)N[C@@H](CO)C5CC5)c4n3)cc(OC(F)F)c2C1=O [Example 159, 2-Amino-N-[(1R)-1-cyclopropyl-2-hydroxyethyl]-5-{2-[(1S)-1-cyclopropylethyl]-7-(difluoromethoxy)-1-oxo-2,3-dihydro-1H-isoindol-5-yl}pyrazolo[1,5-a]pyrimidine-3-carboxamide] | > 7.00 | > 7.00 |
| C[C@@H](C1CC1)N1Cc2cc(-c3ccn4nc(N)c(C(=O)N[C@H]5CC[C@@](C)(O)CC5)c4n3)cc(OC(F)F)c2C1=O [Example 160, 2-Amino-5-{2-[(1S)-1-cyclopropylethyl]-7-(difluoromethoxy)-1-oxo-2,3-dihydro-1H-isoindol-5-yl}-N-[cis-4-hydroxy-4-methylcyclohexyl]pyrazolo[1,5-a]pyrimidine-3-carboxamide] | > 7.00 | > 7.00 |
| C[C@@H](C1CC1)N1Cc2cc(-c3ccn4nc(N)c(C(=O)Nc5cccnc5)c4n3)cc(OC(F)F)c2C1=O [Example 161, 2-Amino-5-{2-[(1S)-1-cyclopropylethyl]-7-(difluoromethoxy)-1-oxo-2,3-dihydro-1H-isoindol-5-yl}-N-(pyridin-3-yl)pyrazolo[1,5-a]pyrimidine-3-carboxamide] | > 7.00 | > 7.00 |
| C[C@@H](C1CC1)N1Cc2cc(-c3ccn4nc(N)c(C(=O)NC5CC5)c4n3)cc(Cl)c2C1=O [Example 162, 2-Amino-5-{7-chloro-2-[(1S)-1-cyclopropylethyl]-1-oxo-2,3-dihydro-1H-isoindol-5-yl}-N-cyclopropylpyrazolo[1,5-a]pyrimidine-3-carboxamide] | > 7.00 | > 7.00 |
| C[C@H](CO)NC(=O)c1c(N)nn2ccc(-c3cc(Cl)c4c(c3)CN([C@@H](C)C3CC3)C4=O)nc12 [Example 163, 2-Amino-5-{7-chloro-2-[(1S)-1-cyclopropylethyl]-1-oxo-2,3-dihydro-1H-isoindol-5-yl}-N-[(2R)-1-hydroxypropan-2-yl]pyrazolo[1,5-a]pyrimidine-3-carboxamide] | > 7.00 | > 7.00 |
| CC[C@H](N1Cc2cc(-c3ccn4nc(N)c(C(=O)N[C@H](C)CO)c4n3)cc(Cl)c2C1=O)C(F)(F)F [Example 164, 2-Amino-5-{7-chloro-1-oxo-2-[(2S)-1,1,1-trifluorobutan-2-yl]-2,3-dihydro-1H-isoindol-5-yl}-N-[(2R)-1-hydroxypropan-2-yl]pyrazolo[1,5-a]pyrimidine-3-carboxamide] | > 7.00 | > 7.00 |
| C[C@@H](C1CC1)N1Cc2cc(-c3ccn4nc(N)c(C(=O)NC5CC5)c4n3)cc(C3CC3)c2C1=O [Example 165, 2-Amino-N-cyclopropyl-5-{7-cyclopropyl-2-[(1S)-1-cyclopropylethyl]-1-oxo-2,3-dihydro-1H-isoindol-5-yl}pyrazolo[1,5-a]pyrimidine-3-carboxamide] | > 7.00 | > 7.00 |
| C[C@H](CO)NC(=O)c1c(N)nn2ccc(-c3cc4c(c(C5CC5)c3)C(=O)N([C@@H](C)C3CC3)C4)nc12 [Example 166, 2-Amino-5-{7-cyclopropyl-2-[(1S)-1-cyclopropylethyl]-1-oxo-2,3-dihydro-1H-isoindol-5-yl}-N-[(2R)-1-hydroxypropan-2-yl]pyrazolo[1,5-a]pyrimidine-3-carboxamide] | > 7.00 | > 7.00 |
| C[C@@H](C1CC1)N1Cc2cc(-c3ccn4nc(N)c(C(=O)N[C@@H](CO)C5CC5)c4n3)cc(C3CC3)c2C1=O [Example 167, 2-Amino-5-{7-cyclopropyl-2-[(1S)-1-cyclopropylethyl]-1-oxo-2,3-dihydro-1H-isoindol-5-yl}-N-[(1R)-1-cyclopropyl-2-hydroxyethyl]pyrazolo[1,5-a]pyrimidine-3-carboxamide] | > 7.00 | > 7.00 |
| CCc1cc(-c2ccn3nc(N)c(C(=O)N[C@@H](CO)C4CC4)c3n2)cc2c1C(=O)N([C@@H](C)C1CC1)C2 [Example 168, 2-Amino-N-[(1R)-1-cyclopropyl-2-hydroxyethyl]-5-{2-[(1S)-1-cyclopropylethyl]-7-ethyl-1-oxo-2,3-dihydro-1H-isoindol-5-yl}pyrazolo[1,5-a]pyrimidine-3-carboxamide] | > 7.00 | > 7.00 |
| CC(C)c1cc(-c2ccn3nc(N)c(C(=O)NC4CC4)c3n2)cc2c1C(=O)N([C@@H](C)C1CC1)C2 [Example 169, 2-Amino-N-cyclopropyl-5-{2-[(1S)-1-cyclopropylethyl]-1-oxo-7-(propan-2-yl)-2,3-dihydro-1H-isoindol-5-yl}pyrazolo[1,5-a]pyrimidine-3-carboxamide] | > 7.00 | > 7.00 |
| C[C@@H](C1CC1)N1Cc2cc(-c3ccn4nc(N)c(C(=O)NC5CC5)c4n3)cc(C(C)(C)O)c2C1=O [Example 170, 2-Amino-N-cyclopropyl-5-{2-[(1S)-1-cyclopropylethyl]-7-(2-hydroxypropan-2-yl)-1-oxo-2,3-dihydro-1H-isoindol-5-yl}pyrazolo[1,5-a]pyrimidine-3-carboxamide] | > 7.00 | > 7.00 |
